Structures can show the parent of a compound that is named as a salt.
Key:
Type in all cases: in vivo, Sprague-Dawley rats
aminopeptidases [1] = assay: In situ nasal perfusion: disappearance of 100 µM Tyr-Phe-Met-Arg-Phe-NH₂ in the nasal perfusate; conditions: 100 µM peptide, 2 µM Boroleucine
Description: (§1) The method involved the use of Sprague-Dawley rats weighing approximately 300 grams. Each rat was anesthetized with sodium pentobarbitol (50 mg/kg). An incision was made in the neck and the trachea was canulated with PE 240 tubing. For the in situ studies, a second tube, which served to introduce the perfusing solution, was inserted through the esophagus to the posterior part of the nasal cavity. The nasopalatine was closed with an adhesive to prevent drainage of the perfusing solution from the nasal to the oral cavity. For the in vivo in situ studies, the esophagus was canulated using PE 240 tubing closed at one end. The closed end was pushed to the posterior end of the nasal passage and then tied in place. The nasopalatine was closed with an adhesive to prevent drainage of the perfusing solution from the nasal to the oral cavity. The rats were dosed in one nostril with 50 µl of peptide solution in two forms; the control solution had no inhibitor added, the test solution had inhibitor added at concentrations specified in the examples shown below. The dosing solution was 0.1 M phosphate buffer (pH 7.4). At certain time intervals (one rat/time interval), the drug was washed from the nose via the other nostril with 10 ml of 0.1 M phosphate buffer (pH 3.8) using a peristaltic pump. The nasal washing was then placed in a 10 ml volumetric flask and adjusted to 10 ml with the same buffer and analyzed for the peptide by HPLC.
(§2) The analysis of leucine enkephalin and its major metabolite involved taking aliquots of samples, diluting them with 200 µl of 0.1 M citric acid (pH 2.3) to quench hydrolysis and subjecting the samples to analysis (for in vivo in situ studies, the washings were injected as they were obtained). High Pressure Liquid Chromatography (HPLC) was run on a 4.6 x 250 mm C₈ column. The mobile phase consisted of 0.1 M NaH₂PO₄-H₃PO₄-acetonitrile (916 : 5 : 275) and was delivered at a flow rate of 1.7 ml/min. Detection was by UV at 210 nm. Retention times for leucine enkephalin and its major degradation product, Des-Tyr-leucine enkephalin were 7.3 and 4.8 min., respectively. Data were calculated as % of leucine enkephalin remaining in the nasal perfusate as a function of time, counting the concentration at zero time as 100%.
(§3) A 10 ml portion of the peptide solution was placed in a water-jacketed container, maintained at 37°C and circulated through the nasal cavity of rats using a peristaltic pump. The perfusing solution was passed through the nasal cavity, out the nostrils, through a funnel, and returned to the water-jacketed container. The perfusate was analyzed by the ANALYTICAL METHOD described above.
In this example, a 0.1 M phosphate buffer solution (pH 7.4) containing 100 µM Tyr-Phe-Met-Arg-Phe-NH₂ was administered nasally to rats as described in Example 1. The peptide was administered in the absence of inhibitor and in the presence of 2 µM boroleucine. The perfusate was analyzed by HPLC using the procedure described in Example 1 with the exception that the mobile phase was comprised of 0.1 M NaH₂PO₄:H₃PO₄:CH₃CN (200:1:60) delivered at 1.4 ml/min. Detection was by UV at 210 nm.

aminopeptidases [2] = assay: In situ nasal perfusion: degradation of 100 µM leucine enkephalin in the nasal perfusate; conditions: 0.01 µM Boroleucine (title: 0.1 µM), 60 min
aminopeptidases [3] = assay: In situ nasal perfusion: disappearance of 35 µM LH-RH (fragment 3-10) in the nasal perfusate; conditions: 0.465 µM Boroleucine
Description: as §1, §2, §3
In this example, a 0.1 M phosphate buffer solution (pH 7.4) containing 35 µM LH-RH (fragment 3-10) in the absence of inhibitor and in the presence of the inhibitor, boroleucine at a concentration of 0.46 µM was administered to rats as described in Example 1. The perfusate was analyzed by HPLC as described in Example 1 with the exception of the mobile phase used. The mobile phase was comprised of 0.1 M NaH₂PO₄:H₃PO₄:CH₃CN(916:5:240) delivered at 1.7 ml/min and analyzed by UV at 210 nm.

[4] = 120 min, listed as Boroleucine, trifluoroacetic acid salt
[5] = 120 min, trifluoroacetic acid salt

SMILES: CC(C)CC(N)B1OC(C)(C)C(C)(C)O1 (centres unmarked) [boroleucine, 3-methyl-1(4,4,5,5-tetramethyl-1,3,2-dioxaborolane-2-yl)-1-butamine, trifluoroacetic acid salt]
- Tyr-Phe-Met-Arg-Phe-NH₂ remaining intact in the nasal perfusate (aminopeptidases [1]; 0 min): 100.0%
- Tyr-Phe-Met-Arg-Phe-NH₂ remaining intact in the nasal perfusate (aminopeptidases [1]; 5 min): 93.8%
- Tyr-Phe-Met-Arg-Phe-NH₂ remaining intact in the nasal perfusate (aminopeptidases [1]; 20 min): 84.3%
- Tyr-Phe-Met-Arg-Phe-NH₂ remaining intact in the nasal perfusate (aminopeptidases [1]; 30 min): 78.8%
- Tyr-Phe-Met-Arg-Phe-NH₂ remaining intact in the nasal perfusate (aminopeptidases [1]; 45 min): 70.5%
- Tyr-Phe-Met-Arg-Phe-NH₂ remaining intact in the nasal perfusate (aminopeptidases [1]; 60 min): 63.3%
- Tyr-Phe-Met-Arg-Phe-NH₂ remaining intact in the nasal perfusate (aminopeptidases [1]; 90 min): 49.5%
- Tyr-Phe-Met-Arg-Phe-NH₂ remaining intact in the nasal perfusate (aminopeptidases [1]; [4]): 32.9%
- Tyr-Phe-Met-Arg-Phe-NH₂ remaining intact in the nasal perfusate (aminopeptidases [1]; [5]): 33%
- % of leucine enkephalin remaining in the nasal perfusate (aminopeptidases [2]): 88.8±2.6%
- LH-RH (fragment 3-10) remaining in the nasal perfusate (aminopeptidases [3]; 0 min): 100.0%
- LH-RH (fragment 3-10) remaining in the nasal perfusate (aminopeptidases [3]; 5 min): 96.7%
- LH-RH (fragment 3-10) remaining in the nasal perfusate (aminopeptidases [3]; 10 min): 97.5%
- LH-RH (fragment 3-10) remaining in the nasal perfusate (aminopeptidases [3]; 20 min): 95.5%
- LH-RH (fragment 3-10) remaining in the nasal perfusate (aminopeptidases [3]; 30 min): 96.5%
- LH-RH (fragment 3-10) remaining in the nasal perfusate (aminopeptidases [3]; 45 min): 95.8%
- LH-RH (fragment 3-10) remaining in the nasal perfusate (aminopeptidases [3]; 60 min): 91.9%
- LH-RH (fragment 3-10) remaining in the nasal perfusate (aminopeptidases [3]; 90 min): 92.9%
- LH-RH (fragment 3-10) remaining in the nasal perfusate (aminopeptidases [3]; [4]): 86.4%
- LH-RH (fragment 3-10) remaining in the nasal perfusate (aminopeptidases [3]; [5]): about 86%
